Results published in patent US5209930A, “Preparation and use of N-iodopropargyl oxycarbonyl amino acid esters and derivatives as antimicrobial agents” (Rohm and Haas Company, priority 1990, dated 1993).
Converted amounts (≈) assume the structure as drawn.

What was measured:
Experiment in all cases: MIC, broth two-fold serial dilution test
[1] = system: Pseudomonas fluorescens (PSFL); assay type: cell-based, gram negative, ATCC 948; details: Pseudomonas fluorescens (G-); M9G (minimal salts media with glucose); read-out: minimum inhibitory concentration (MIC), PSFL
Description: (§1) Biocidal evaluations (bactericidal, algicidal, and fungicidal) were carried out.
(§2) A minimum inhibitory concentration (MIC) value is obtained using a broth, two-fold serial dilution test performed as follows: A stock solution or dispersion of the test compound, typically at a concentration of 1%, is made in a 5:3:2 solvent solution of acetone, methanol, and water. A volume of the stock solution is dispensed into culture media to give an initial starting test concentration of 500 ppm compound.
(§3) When the test is ready to be done, each vessel in the dilution series, except the first vessel, contains an equal volume of compound free broth. The first vessel contains twice the volume of broth with the starting concentration of test compound. One half of the broth from the first vessel is transferred to the second vessel. After being mixed, one half the resulting volume is removed from the second vessel and transferred to the third vessel. The entire cycle is repeated sufficiently to give a series of concentrations amounting to 500, 250, 125, 63, 31, 16, 8, and 4 ppm (or 100, 50, 25, 12.5, 6.2, 3.1, 1.6, and 0.8), respectively.
(§4) Each vessel is then inoculated with a cell suspension of the appropriate test organism. Bacteria are grown in broth, fungi on agar slants for a time and at a temperature appropriate to the species being tested, and algae are a mixture of green algae and blue-green bacteria grown in a nutrient media. At the end of the growth period, in the case of bacteria, the broth is vortexed to disperse the cells.
(§5) The vessels are then incubated at the appropriate temperature. After the incubation, the vessels are examined for growth/no growth. The minimum inhibitory concentration (MIC) is defined as the lowest concentration of compound that results in complete inhibition of growth of the test organism.
Pseudomonas fluorescens (PSFL), gram negative
(§6) These compounds were tested in M9G
(§7) (minimal salts media with glucose)
4. Pseudomonas fluorescens (-)

Aspergillus niger (ANIG) = assay type: cell-based, ATCC 6275; details: Aspergillus niger (F); M9G (minimal salts media with glucose); read-out: minimum inhibitory concentration (MIC), ANIG
Description: as §1, §2, §3, §4
(§8) In the case of fungi, the spores are harvested by pipetting water onto the slant and dislodging the spores with a sterile loop. The cell/spore suspension is standardized by controlling incubation time, temperature, and the volume of the diluent. The suspension is then used to inoculate the vessels containing the broth compound.
as §5, §6, §7

Escherichia coli (ECOL) = assay type: cell-based, gram negative, ATCC 11229; details: Escherichia coli (G-); M9G (minimal salts media with glucose); read-out: minimum inhibitory concentration (MIC), ECOL
Description: as §1, §2, §3, §4, §5
Escherichia coli (ECOL), gram negative
as §6, §7

[2] = system: Aureobasidium pullulans (APUL); assay type: cell-based, ATCC 9348; details: Aureobasidium pullulans (F); M9G (minimal salts media with glucose); read-out: minimum inhibitory concentration (MIC), APUL
Description: as §1, §2, §3, §4, §8, §5
Aureobasidium pullulans (APUL)
as §6, §7
6. Aureobasidium pullulans

[3] = system: Staphylococcus aureus (SAUR); assay type: cell-based, gram positive, ATCC 6538; details: Staphylococcus aureus (G+); M9G (minimal salts media with glucose); read-out: minimum inhibitory concentration (MIC), SAUR
Description: as §1, §2, §3, §4, §5
Staphylococcus aureus (SAUR), gram positive
as §6, §7
2. Staphylococcus aureus (+)

[4] = system: Pseudomonas aerugenosa (PSAE); assay type: cell-based, gram negative, ATCC 15442; details: Pseudomonas aeruginosa (G-); M9G (minimal salts media with glucose); read-out: minimum inhibitory concentration (MIC), PSAE
Description: as §1, §2, §3, §4, §5
Pseudomonas aerugenosa (PSAE), gram negative
as §6, §7
1. Pseudomonas aeruginosa (-)

ALGAE = assay type: cell-based, mixture of green algae and blue-green bacteria; details: green algae and blue-green bacteria; culture in Allen's medium; read-out: minimum inhibitory concentration (MIC), ALGAE
Description: as §1, §2, §3
Each vessel is then inoculated with a cell suspension of the appropriate test organism. […]

| Compound | MIC [1] | MIC (Aspergillus niger (ANIG)) | MIC (Escherichia coli (ECOL)) | MIC [2] | MIC [3] | MIC [4] | MIC (ALGAE) |
| --- | --- | --- | --- | --- | --- | --- | --- |
| CCCCCCCCOC(=O)[C@H](C)NC(=O)OCC#CI [Compound 7, N-iodopropargyloxycarbonyl alanine n-octyl ester] | 8 µg/mL | < 4 µg/mL | < 4 µg/mL | < 63 µg/mL | 63 µg/mL | 125 µg/mL | – |
| COC(=O)[C@H](C)NC(=O)OCC#CI [Compound 6, N-iodopropargyloxycarbonyl alanine methyl ester] | < 4 µg/mL | < 4 µg/mL | < 4 µg/mL | < 4 µg/mL | 16 µg/mL | 32 µg/mL | – |
| C[C@H](NC(=O)OCC#CI)C(=O)O [Compound 5, N-iodopropargyloxycarbonyl alanine] | 125 µg/mL | 125 µg/mL | 125 µg/mL | 32 µg/mL | 250 µg/mL | > 500 µg/mL | – |
| O=C(CNC(=O)OCC#CI)OCC#CI [Compound 4, N-iodopropargyloxycarbonyl glycine iodopropargyl ester] | 32 µg/mL | < 0.12 µg/mL | 125 µg/mL | < 0.12 µg/mL | 32 µg/mL | 125 µg/mL | 12.5 µg/mL (≈ 28 µM) |
| COC(=O)CNC(=O)OCC#CI [Compound 2, N-iodopropargyloxycarbonyl glycine methyl ester] | 16 µg/mL | < 4 µg/mL | 32 µg/mL | < 4 µg/mL | 16 µg/mL | 32 µg/mL | – |
| CCCCCCCCOC(=O)CNC(=O)OCC#CI [Compound 3, N-Iodopropargyloxycarbonyl glycine n-octyl ester] | 8 µg/mL | < 4 µg/mL | > 500 µg/mL | < 4 µg/mL | 8 µg/mL | > 500 µg/mL | – |
| O=C(O)CNC(=O)OCC#CI [Compound 1, N-iodopropargyloxycarbonyl glycine] | 250 µg/mL | > 500 µg/mL | 250 µg/mL | > 500 µg/mL | 250 µg/mL | > 500 µg/mL | – |
| COC(=O)[C@H](Cc1ccccc1)NC(=O)OCC#CI [Compound 9, N-iodopropargyloxycarbonyl phenylalanine methyl ester] | 125 µg/mL | < 4 µg/mL | > 500 µg/mL | < 4 µg/mL | 125 µg/mL | > 500 µg/mL | – |
| O=C(N[C@@H](Cc1ccccc1)C(=O)O)OCC#CI [Compound 8, N-iodopropargyloxycarbonyl phenylalanine] | 63 µg/mL | 250 µg/mL | < 4 µg/mL | 250 µg/mL | 125 µg/mL | 250 µg/mL | – |
| CCCCCCCCOC(=O)[C@H](Cc1ccccc1)NC(=O)OCC#CI [Compound 10, N-iodopropargyloxycarbonyl phenylalanine n-octyl ester] | 32 µg/mL | 125 µg/mL | < 4 µg/mL | 125 µg/mL | 32 µg/mL | 63 µg/mL | – |
